{
  "source": "patent US20200276181A1",
  "about": "“THIENOISOQUINOLINES AND THEIR DERIVATIVES FOR TARGETING TUBULIN, CH-TOG, AURORA A KINASE, TPX2, CDK5RAP2 AND/OR ASPM” (VALORBEC, SEC, priority 2017, published 2020)",
  "key": {"HeLa cells in metaphase": {"tested_on": "HeLa cells in metaphase", "experiment": "Short treatment and washout, spindle recovery", "format": "cell-based, human", "conditions": "5 minutes treatment, washout, imaged after 40 minutes", "source_text": "For each condition, 20,000 cells were counted per replicate (N=3). Line graphs (right) were made to better illustrate the relative changes in the cell cycle phases for the different treatments. Bars show standard deviation. The asterisks indicate the first statistically significant change in the G0/G1 and G2/M populations determined by a two-way ANOVA with a post-hoc Tukey's multiple comparisons test using 95% confidence intervals. FIG. 2B) is a line graph showing the percentage of HCT116 (p53−/−) cells, A549 cells, HeLa cells and H1299 cells in mitosis after treatment with various concentrations of C75 for one population doubling time. All of the cell lines show an increase in the proportion of mitotic cells after treatment with 200 nM C75. The bars indicate standard deviation. […]\nC75 was also tested for efficacy in different cancer cell lines. […] To further assess the role of C75 in disrupting spindles, HeLa cells were treated with 300 nM C75 for 4 hours and the spindle phenotypes were analyzed in more detail (FIG. 2E). […] To assess the affect of C75 on centrosomes, HeLa cells were treated with C75 or nocodazole (a drug that causes microtubule depolymerization as a control) for a short period of time (5 minutes), then the drugs were removed and the cells were analyzed for spindle phenotypes (schematic in FIG. 2G). […]"}, "[1]": {"tested_on": "BT549 (breast ductal carcinoma) cells", "experiment": "Cell viability IC50 (Table 3)", "format": "cell-based, human", "experimental": "(§1) To date, 30 variants with different structural modifications have been made. […] In particular, it is shown that C75 causes death in multiple cancer cells with IC50 values in the 100-400 nM range, including breast cancers (MCF7, BT549), lung cancer (A549), colorectal cancer (HCT116) in addition to HeLa cells (cervical cancer)."}, "[2]": {"tested_on": "HeLa (cervical adenocarcinoma) cells", "experiment": "Cell viability IC50 (Table 3)", "format": "cell-based, human", "experimental": "as §1"}, "[3]": {"tested_on": "MCF-7 (mammary gland carcinoma) cells", "experiment": "Cell viability IC50 (Table 3)", "format": "cell-based, human", "conditions": "MCF-7 cells", "experimental": "as §1"}, "A549 cells [4]": {"tested_on": "A549 cells", "experiment": "IC50 of derivatives (Table 5)", "format": "cell-based, human", "conditions": "Table 5, cell line only named in b213 (A549)"}, "[5]": {"tested_on": "HFF1 (fibroblast) non-cancer cells", "experiment": "Cell viability IC50 (Table 3)", "format": "cell-based", "conditions": "HFF-1 non-cancer cells", "experimental": "as §1"}, "[6]": {"tested_on": "MCF7, BT549, A549, HCT116, HeLa cells", "experiment": "Viability in cancer vs non-cancer cell lines, summary of Table 3", "format": "cell-based, human", "experimental": "as §1"}, "[7]": {"molecular_target": "Purified free alpha and beta tubulin dimers (Homo sapiens, UniProt P07437+Q71U36)", "conditions": "comparison drugs; cited from earlier work"}, "A549 cells [8]": {"tested_on": "A549 cells", "experiment": "Spindle morphology, DAPI and tubulin staining", "format": "cell-based, human", "conditions": "300 nM, 4 hours", "experimental": "FIG. 1A) is a line graph showing changes in the percentage of viable HFF-1, HeLa, A549 and HCT 116 cells after treatment with a range of C75 concentrations for 3 population doubling times (N=3). […] FIG. 1C) is a line graph showing the percentage of HeLa and HFF1 cells in mitosis after treatment with various concentrations of C75 for 8 hours. The bars indicate standard deviation. FIG. 1D) is a series of images showing cells that were fixed and co-stained for tubulin (microtubules) and DAPI (DNA). […] The scale bar for the cells is 10 μm. […] FIG. 1F) is a cartoon schematic showing the key features of a metaphase cell."}, "Aurora A kinase": {"molecular_target": "Aurora A kinase (Homo sapiens, UniProt O14965)", "sequence (O14965 whole entry)": "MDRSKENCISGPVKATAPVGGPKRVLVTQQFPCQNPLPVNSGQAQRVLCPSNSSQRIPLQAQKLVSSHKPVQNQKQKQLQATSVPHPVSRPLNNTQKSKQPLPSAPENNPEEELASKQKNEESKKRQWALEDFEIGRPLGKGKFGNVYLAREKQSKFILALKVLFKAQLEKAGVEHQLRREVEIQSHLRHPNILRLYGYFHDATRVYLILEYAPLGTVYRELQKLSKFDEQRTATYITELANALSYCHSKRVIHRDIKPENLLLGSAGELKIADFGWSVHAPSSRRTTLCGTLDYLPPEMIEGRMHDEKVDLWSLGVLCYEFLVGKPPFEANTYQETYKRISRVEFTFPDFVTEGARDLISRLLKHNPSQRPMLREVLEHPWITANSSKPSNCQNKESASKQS", "conditions": "in vitro; cited from earlier work"}, "[9]": {"tested_on": "HeLa cells with lower levels of endogenous MCAK (MCAK RNAi)", "experiment": "Spindle phenotypes with MCAK RNAi", "format": "cell-based, human", "conditions": "300 nM C75 or 30 nM colchicine", "source_text": "FIG. 8B) is a bar graph showing the proportion of spindle phenotypes in HeLa cells treated as in 8A).\nSince this is unique to C75, and ch-TOG RNAi was previously shown to be suppressed (partially) by MCAK RNAi, supporting C75's role in targeting ch-TOG or a component of the pathway."}, "[10]": {"tested_on": "HeLa cells with lower levels of endogenous ch-TOG (ch-TOG RNAi)", "experiment": "Spindle phenotypes with ch-TOG RNAi", "format": "cell-based, human", "conditions": "200 nM C75 or 20 nM colchicine", "source_text": "FIG. 7B) is a bar graph showing the proportion of phenotypes of the HeLa cells observed in the different conditions listed in 7A) (bipolar spindles in light grey; bipolar spindles with misaligned chromosomes in dark grey; multipolar/fragmented spindles in hatched lines; monopolar spindles in black)."}, "HFF-1 cells": {"tested_on": "HFF-1 cells", "experiment": "Viability IC50, high-throughput automated analysis (Table 4)", "format": "cell-based", "conditions": "Homo sapiens, 3 population doubling times", "experimental": "(§2) FIG. 1A) is a line graph showing changes in the percentage of viable HFF-1, HeLa, A549 and HCT 116 cells after treatment with a range of C75 concentrations for 3 population doubling times (N=3). […] There were more rounded mitotic cells after C75 treatment in comparison to the control. FIG. 1C) is a line graph showing the percentage of HeLa and HFF1 cells in mitosis after treatment with various concentrations of C75 for 8 hours. The bars indicate standard deviation. FIG. 1D) is a series of images showing cells that were fixed and co-stained for tubulin (microtubules) and DAPI (DNA). Treatment of HeLa cells with 300 nM C75 caused the mitotic spindles to be disorganized, while they were not affected in HFF1 cells. […] The scale bar for the cells is 10 μm. […] FIG. 1F) is a cartoon schematic showing the key features of a metaphase cell.\n(§3) The images in FIG. 1B) show fields of view of HeLa cells treated with (dimethyl sulfoxide) DMSO or 500 nM of C75. […] Higher concentrations of C75 caused spindle phenotypes in HFF1 cells, but they were quite different in comparison to HeLa cells (FIG. 1D)."}, "A549 cells [11]": {"tested_on": "A549 cells", "experiment": "Viability IC50, high-throughput automated analysis (Table 4)", "format": "cell-based", "conditions": "Homo sapiens, 3 population doubling times", "experimental": "as §2, §3"}, "HeLa cells": {"tested_on": "HeLa cells", "experiment": "Viability IC50, high-throughput automated analysis (Table 4)", "format": "cell-based", "conditions": "Homo sapiens, 3 population doubling times", "experimental": "as §2, §3"}, "HCT 116 cells": {"tested_on": "HCT 116 cells", "experiment": "Viability IC50, high-throughput automated analysis (Table 4)", "format": "cell-based", "conditions": "Homo sapiens, 3 population doubling times", "experimental": "as §2, §3"}},
  "data": [
    {"smiles": "COC(=O)Nc1nc2ccc(C(=O)c3cccs3)cc2[nH]1", "note": "[nocodazole, reference compound]", "values": [
      {"measurement": "spindles reformed after drug removal", "setting": "HeLa cells in metaphase", "value": "bipolar spindles reformed"}
    ]},
    {"smiles": "COc1ccc(S(=O)(=O)N2Cc3ccccc3-c3sc(I)cc32)cc1", "note": "[Compound C207]", "values": [
      {"measurement": "IC50", "setting": "[1]", "value": 178, "unit": "nM"},
      {"measurement": "IC50", "setting": "[2]", "value": 70, "unit": "nM"},
      {"measurement": "IC50", "setting": "[3]", "value": 86, "unit": "nM"},
      {"measurement": "IC50", "setting": "A549 cells [4]", "value": 433, "unit": "nM"},
      {"measurement": "IC50", "setting": "[5]", "value": 150, "unit": "nM"},
      {"measurement": "efficacy (effect on viability) in cancer cells vs. non-cancer cells", "setting": "[6]", "value": "higher efficacy"}
    ]},
    {"smiles": "CC[C@]1(O)C[C@@H]2CN(CCc3c([nH]c4ccccc34)[C@@](C(=O)OC)(c3cc4c(cc3OC)N(C)[C@H]3[C@@](O)(C(=O)OC)[C@H](OC(C)=O)[C@]5(CC)C=CCN6CC[C@]43[C@@H]65)C2)C1", "note": "[vinblastine]", "values": [
      {"measurement": "concentration causing a similar decrease of polymerization", "setting": "[7]", "value": "~5", "unit": "µM"}
    ]},
    {"smiles": "COc1cc(Nc2ncc3c(n2)-c2ccc(Cl)cc2C(c2c(F)cccc2OC)=NC3)ccc1C(=O)O", "note": "[Alisertib, reference compound]", "values": [
      {"measurement": "spindle phenotype", "setting": "A549 cells [8]", "value": "mitotic arrest and spindle phenotypes similar to what was observed for C75"},
      {"measurement": "affinity for Aurora A kinase", "setting": "Aurora A kinase", "value": "~1", "unit": "nM"}
    ]},
    {"smiles": "COc1ccc(S(=O)(=O)N2Cc3ccccc3-c3sccc32)cc1", "note": "[Compound C90]", "values": [
      {"measurement": "IC50", "setting": "[2]", "value": 177, "unit": "nM"},
      {"measurement": "IC50", "setting": "[3]", "value": 149, "unit": "nM"},
      {"measurement": "IC50", "setting": "A549 cells [4]", "value": 781, "unit": "nM"}
    ]},
    {"smiles": "COc1cc2c(c(OC)c1OC)-c1ccc(OC)c(=O)cc1[C@@H](NC(C)=O)CC2", "note": "[colchicine, reference compound]", "values": [
      {"measurement": "suppression of fragmented spindle phenotype by MCAK RNAi", "setting": "[9]", "value": "not"},
      {"measurement": "interaction with ch-TOG RNAi, fragmented spindle phenotype", "setting": "[10]", "value": "synergistic"}
    ]},
    {"smiles": "O=S(=O)(c1cccs1)N1Cc2ccccc2-c2sccc21", "note": "[Compound C87]", "values": [
      {"measurement": "IC50", "setting": "A549 cells [4]; Homo sapiens", "value": "> 1000", "unit": "nM"},
      {"measurement": "IC50", "setting": "HFF-1 cells", "value": "> 1000", "unit": "nM"},
      {"measurement": "IC50", "setting": "A549 cells [11]", "value": "> 1000", "unit": "nM"},
      {"measurement": "IC50", "setting": "HeLa cells", "value": "> 1000", "unit": "nM"},
      {"measurement": "IC50", "setting": "HCT 116 cells", "value": "> 1000", "unit": "nM"}
    ]}
  ]
}
